pKi: −log10 of the molar value.
The molecules below were run against T1, Adenosine receptor A3 (Homo sapiens, UniProt P0DMS8) (assay: Displacement of [125I]-ABMECA from recombinant human A3 receptor expressed in CHO cell membranes measured after 120 mins by scintillation counting method).
T1 sequence (P0DMS8 whole entry): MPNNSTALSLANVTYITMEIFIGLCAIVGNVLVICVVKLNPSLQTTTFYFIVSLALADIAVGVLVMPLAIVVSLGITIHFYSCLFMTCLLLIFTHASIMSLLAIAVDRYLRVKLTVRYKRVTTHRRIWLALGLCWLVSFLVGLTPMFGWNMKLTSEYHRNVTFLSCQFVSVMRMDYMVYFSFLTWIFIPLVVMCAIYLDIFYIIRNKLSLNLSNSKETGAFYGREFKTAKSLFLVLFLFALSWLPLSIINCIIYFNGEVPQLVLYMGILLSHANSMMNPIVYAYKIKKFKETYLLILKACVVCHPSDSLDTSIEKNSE

Row | Structure (SMILES) | pKi
1 | CCn1nc(-c2nccs2)c2sccc2c1=O | 5.53
2 | CCn1nc(-c2ccccc2)c2sccc2c1=O | 5.59

Each molecule was assayed against T2, Adenosine receptor A2b (Homo sapiens) (UniProt P29275) (assay: Antagonist activity at recombinant human A2B receptor expressed in CHO cells assessed as inhibition of NECA-stimulated cAMP production at 0.001 to 1 uM by Alpha screen assay relative to control).
T2 sequence (whole entry): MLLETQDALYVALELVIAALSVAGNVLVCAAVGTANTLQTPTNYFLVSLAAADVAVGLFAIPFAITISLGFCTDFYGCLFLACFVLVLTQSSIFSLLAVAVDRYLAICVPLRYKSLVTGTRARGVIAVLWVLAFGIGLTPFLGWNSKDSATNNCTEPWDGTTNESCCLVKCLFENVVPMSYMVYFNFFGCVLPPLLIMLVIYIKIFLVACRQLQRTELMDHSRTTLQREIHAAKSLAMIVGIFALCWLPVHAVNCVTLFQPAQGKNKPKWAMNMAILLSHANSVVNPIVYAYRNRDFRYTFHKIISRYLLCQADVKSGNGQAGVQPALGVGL
Type: functional, cell-based

Row | Structure (SMILES) | inhibition [%]
3 | CCn1nc(-c2ccccn2)c2sccc2c1=O | 1
4 | CCc1nn(CC)c(=O)c2ccsc12 | 1
5 | CC(C)n1nc(-c2ccccn2)c2sccc2c1=O | 1
6 | CCn1nc(-c2cccs2)c2sccc2c1=O | 1
7 | O=c1[nH]nc(-c2nccs2)c2sccc12 | 1
8 | CCn1nc(-c2nccs2)c2sccc2c1=O | 1
9 | Nn1nc(-c2cccs2)c2sccc2c1=O | 1
10 | Nn1nc(-c2nccs2)c2sccc2c1=O | 1
11 | Nn1nc(-c2ccccc2)c2sccc2c1=O | 1
12 | Nn1nc(-c2ccccn2)c2sccc2c1=O | 1
13 | CCc1nn(CC)c(=O)c2cc(-c3ccccc3)sc12 | 1
14 | CCn1nc(-c2ccccc2)c2sccc2c1=O | 1

The molecules below were run against T3, Adenosine receptor A1 (Homo sapiens, UniProt P30542) (assay: Displacement of [3H]DPCPX from recombinant human A1 receptor expressed in CHO cell membranes measured after 90 mins by scintillation counting method).
T3 sequence (P30542 whole entry): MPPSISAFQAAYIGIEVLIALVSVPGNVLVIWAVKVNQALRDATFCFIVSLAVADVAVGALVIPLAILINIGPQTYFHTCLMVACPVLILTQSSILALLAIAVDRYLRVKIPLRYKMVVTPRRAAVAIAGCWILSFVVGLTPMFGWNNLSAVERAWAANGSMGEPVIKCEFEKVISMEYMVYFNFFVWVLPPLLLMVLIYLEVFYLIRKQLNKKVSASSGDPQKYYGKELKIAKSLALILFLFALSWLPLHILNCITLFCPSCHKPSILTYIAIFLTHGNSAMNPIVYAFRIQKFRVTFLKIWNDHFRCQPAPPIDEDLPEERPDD

Row | Structure (SMILES) | pKi
15 | CCn1nc(-c2ccccn2)c2sccc2c1=O | 6.11
16 | CC(C)n1nc(-c2ccccn2)c2sccc2c1=O | 6.04
17 | CCn1nc(-c2cccs2)c2sccc2c1=O | 6.14
18 | O=c1[nH]nc(-c2nccs2)c2sccc12 | 5.94
19 | CCn1nc(-c2nccs2)c2sccc2c1=O | 6.95
20 | Nn1nc(-c2cccs2)c2sccc2c1=O | 5.45
21 | Nn1nc(-c2nccs2)c2sccc2c1=O | 5.54
22 | Nn1nc(-c2ccccn2)c2sccc2c1=O | 5.43
23 | CCn1nc(-c2ccccc2)c2sccc2c1=O | 5.57

These molecules were tested against T4, Adenosine receptor A3 (Homo sapiens) (UniProt P0DMS8) (assay: Displacement of [125I]-ABMECA from recombinant human A3 receptor expressed in CHO cell membranes at 1 uM measured after 120 mins by scintillation counting method relative to control).
T4 sequence (whole entry): T1 sequence (P0DMS8 whole entry)

Row | Structure (SMILES) | inhibition [%]
24 | CCn1nc(-c2ccccn2)c2sccc2c1=O | 1
25 | CCc1nn(CC)c(=O)c2ccsc12 | 14
26 | CC(C)n1nc(-c2ccccn2)c2sccc2c1=O | 2
27 | CCn1nc(-c2cccs2)c2sccc2c1=O | 1
28 | O=c1[nH]nc(-c2nccs2)c2sccc12 | 1
29 | Nn1nc(-c2cccs2)c2sccc2c1=O | 1
30 | Nn1nc(-c2nccs2)c2sccc2c1=O | 5
31 | Nn1nc(-c2ccccc2)c2sccc2c1=O | 1
32 | Nn1nc(-c2ccccn2)c2sccc2c1=O | 1
33 | CCc1nn(CC)c(=O)c2cc(-c3ccccc3)sc12 | 10

What follows are molecules tested against T5, Adenosine receptor A2a (Homo sapiens, UniProt P29274) (assay: Displacement of [3H]-ZM241385 from recombinant human A2A receptor expressed in CHO cell membranes measured after 60 mins by scintillation counting method).
T5 sequence (P29274 whole entry): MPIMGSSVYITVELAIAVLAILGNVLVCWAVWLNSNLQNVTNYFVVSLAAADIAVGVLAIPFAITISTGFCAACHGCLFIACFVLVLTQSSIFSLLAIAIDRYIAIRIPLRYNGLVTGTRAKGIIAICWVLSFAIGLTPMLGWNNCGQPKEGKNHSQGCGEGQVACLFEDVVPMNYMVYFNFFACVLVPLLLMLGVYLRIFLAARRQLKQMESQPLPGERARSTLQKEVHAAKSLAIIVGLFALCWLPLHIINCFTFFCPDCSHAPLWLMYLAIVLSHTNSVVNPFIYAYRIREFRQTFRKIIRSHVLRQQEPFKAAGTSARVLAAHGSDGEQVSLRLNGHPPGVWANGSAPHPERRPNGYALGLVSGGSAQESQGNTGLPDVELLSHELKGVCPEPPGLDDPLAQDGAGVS

Row | Structure (SMILES) | pKi
34 | CCn1nc(-c2ccccn2)c2sccc2c1=O | 5.54
35 | O=c1[nH]nc(-c2nccs2)c2sccc12 | 5.47
36 | CCn1nc(-c2nccs2)c2sccc2c1=O | 5.60
37 | CCc1nn(CC)c(=O)c2cc(-c3ccccc3)sc12 | 5.50

The molecules below were run against T6, Adenosine receptor A1 (Homo sapiens) (UniProt P30542) (assay: Displacement of [3H]DPCPX from recombinant human A1 receptor expressed in CHO cell membranes at 1 uM measured after 90 mins by scintillation counting method relative to control).
T6 sequence (whole entry): T3 sequence (P30542 whole entry)

Row | Structure (SMILES) | inhibition [%]
38 | CCc1nn(CC)c(=O)c2ccsc12 | 3
39 | Nn1nc(-c2ccccc2)c2sccc2c1=O | 16
40 | CCc1nn(CC)c(=O)c2cc(-c3ccccc3)sc12 | 4

These molecules were tested against T5, Adenosine receptor A2a (assay: Displacement of [3H]-ZM241385 from recombinant human A2A receptor expressed in CHO cell membranes at 1 uM measured after 60 mins by scintillation counting method relative to control).

Row | Structure (SMILES) | inhibition [%]
41 | CCc1nn(CC)c(=O)c2ccsc12 | 7
42 | CC(C)n1nc(-c2ccccn2)c2sccc2c1=O | 2
43 | CCn1nc(-c2cccs2)c2sccc2c1=O | 1
44 | Nn1nc(-c2cccs2)c2sccc2c1=O | 1
45 | Nn1nc(-c2nccs2)c2sccc2c1=O | 15
46 | Nn1nc(-c2ccccc2)c2sccc2c1=O | 12
47 | Nn1nc(-c2ccccn2)c2sccc2c1=O | 1
48 | CCn1nc(-c2ccccc2)c2sccc2c1=O | 17
